Target: Proto-oncogene tyrosine-protein kinase Src (Homo sapiens, UniProt P12931)
Sequence (P12931 2-536 limits assumed): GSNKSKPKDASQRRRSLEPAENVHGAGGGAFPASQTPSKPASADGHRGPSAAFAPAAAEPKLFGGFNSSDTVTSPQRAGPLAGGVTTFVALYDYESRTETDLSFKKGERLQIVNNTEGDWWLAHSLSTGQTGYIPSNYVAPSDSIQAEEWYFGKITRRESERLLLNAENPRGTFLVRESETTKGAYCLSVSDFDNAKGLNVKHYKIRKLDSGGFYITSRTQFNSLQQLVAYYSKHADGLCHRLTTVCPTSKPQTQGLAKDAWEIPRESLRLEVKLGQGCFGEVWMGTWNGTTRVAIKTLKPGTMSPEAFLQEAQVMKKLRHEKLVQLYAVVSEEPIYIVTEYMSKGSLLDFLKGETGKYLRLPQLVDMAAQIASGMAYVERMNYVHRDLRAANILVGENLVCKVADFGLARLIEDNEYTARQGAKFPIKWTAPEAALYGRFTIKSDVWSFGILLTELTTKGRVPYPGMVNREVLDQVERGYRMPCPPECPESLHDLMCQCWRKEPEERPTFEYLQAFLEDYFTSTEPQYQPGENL

SMILES | IC50 [nM]
CCCP(=O)(CCC)c1ccc(Nc2nc(C(C)C)nc3c2ncn3CC)cc1 | 3.9
CCCCP(=O)(CCCC)c1ccc(Nc2nc(C(C)C)nc3c2ncn3CC)cc1 | 8.8
CCn1cnc2c(Nc3ccc(P(C)(C)=O)cc3)nc(C(C)C)nc21 | 25.1
CCn1cnc2c(Nc3ccc(P(C)(C)=O)cc3)nc(NC3CCOCC3)nc21 | 41.2
Cc1cccc(C)c1/C=C/n1cnc2c(Nc3ccc(P(C)(C)=O)cc3)nc(-c3ccccn3)nc21 | 43.1
C=Cn1cnc2c(Nc3ccc(P(C)(C)=O)cc3)nc(N3CCC(CO)CC3)nc21 | 155
C=Cn1cnc2c(Nc3ccc(P(C)(C)=O)cc3)nc(OC3CCOC3)nc21 (centres undefined) | 188
CCn1cnc2c(Nc3ccc(C(C)C)cc3)nc(C(C)C)nc21 | 385
C=Cn1cnc2c(Nc3ccc(P(C)(C)=O)cc3)ncnc21 | 1000

— ChEMBL document CHEMBL2034863, “Application of MM-GB/SA and WaterMap to SRC Kinase Inhibitor Potency Prediction” (ACS Med Chem Lett, 2012)
